# How the values were obtained:
# [1] = Chemical stability (thermal, aqueous solution); type: physicochemical
# Excerpt: Most of these compounds are relatively stable. […] Its chemical behaviour resembles that of known 2-oxazoline derivatives. […] The formation of the decomposition products can be monitored with ^1H-NMR by inspection at two regions δ 3.3-3.5 (appearance of two doublets) and 1.9-2.0 ppm (appearance of two additional singlets).
# The expected decomposition pattern (when e.g., X is O and Y is N) involves opening of the oxazoline ring to form both amide and ester as shown in Scheme E, in which the quinuclidine-derived compounds are depicted illustratively. The formation of two new singlets at δ 1.9-2.0 ppm as expected for R = Me of these two structures are in agreement with this supposition. [drawing 32]
# Ring opening is much faster in the presence of dilute hydrochloric acid. […] The tendency to decomposition of such salts complicates the optical separation of compounds such as AF125 and AF123. However, this problem can be overcome by using the method described for the optical separation of the enantiomers of AF125, or alternatively the amino-alcohols such as 3-aminomethylquinuclidin-3-ol can be resolved and the separated enantiomers can then be cyclized using an ester or imidate as already described. In yet another alternative the N-acyl derivatives of (e.g.) 3-aminomethylquinuclidin-3-ol can be resolved and the separated enantiomers can then be cyclized per se as shown in Scheme K: [drawing 33] […]
# [2] = system: CA1 neurons in the hippocampal slice; assay: Electrophysiological evaluation in rat hippocampal slices
# Procedure: In general terms the effects of microdrops of AF150, ACh and PZ were applied to rat hippocampal cells recorded intracellularly. The exact concentrations of the drug at the receptor sites are not known, using this method. However, this method has an advantage over the perfusion method, in that it gives a more correct picture from the electrophysiological point of view (Segal, loc cit).
# Intracellular responses to AF150 of CA1 neurons in the hippocampal slice were recorded, using the method of Segal. Small hyperpolarizing current pulses (current traces not shown) were alternated with stimulation of the Schaffer-commissural afferents producing postsynaptic potentials.
# AF64A-treated rats = assay: Passive avoidance (PA) in AF64A-treated rats; type: in vivo; details: for Retention latency after 72 hours: i.p.
# Excerpt: This animal model mimics to a certain extent the cholinergic hypofunction in SDAT (Fisher and Hanin, Ann. Rev. Pharmacol. Toxicol. 26: 161-181, 1986). The method described in Fisher et al (J. Pharmacol. Exptl. Therap., 1991, in the press) and in Fisher et al (Neurosci. Lett. 102: 325-331, 1989) was used here.
# No significant differences were found among the different groups of animals tested in the initial latency test; the initial latency ranged from 20 and 31 seconds. In all the experiments using AF150, the compound as free base was dissolved in 10 mM phosphate buffer having pH 7.35.
Structure (SMILES),thermal stability [1],slow AHP (Ca++-dependent K+ conductance) ([2]; applied topically by microdrops),depolarization ([2]; applied topically by microdrops (AF150: 100 µM)),input resistance at rest ([2]; microdrops (100 µM)),postsynaptic potentials (PSPs) ([2]; microdrops (100 µM)),"Retention latency after 72 hours (AF64A-treated rats; AF150 0.1 mg./kg., rats treated with AF64A (3 nmole/2µl./side, icv)) [s]","Retention latency after 72 hours (AF64A-treated rats; AF150 0.1 mg./kg., rats treated with saline) [s]","Retention latency after 72 hours (AF64A-treated rats; AF150 0.2 mg./kg., rats treated with AF64A) [s]","Retention latency after 72 hours (AF64A-treated rats; AF150 0.2 mg./kg., rats treated with saline) [s]","Retention latency after 72 hours (AF64A-treated rats; AF150 1.0 mg./kg., rats treated with AF64A) [s]","Retention latency after 72 hours (AF64A-treated rats; AF150 1.0 mg./kg., rats treated with saline) [s]","retention latency (AF64A-treated rats; administered orally at 0.2 and 1.0 mg./kg., free base, AF64A-treated rats (not shown))"
"CC1=NCC2(CN3CCC2CC3)O1 (racemic) [AF125, 2-Methyl-spiro(1,3 oxazoline-5,3')quinuclidine]",thermally stable and can be distilled at 130° without decomposition,,,,,,,,,,,
"CC1=NCC2(CCN(C)CC2)O1 [AF150, 2-Methyl-spiro(1,3-oxazoline-5,4')-1'-methylpiperidine]",,blocks the slow AHP,potent depolarizing response,real increase in input resistance at rest,small reduction in postsynaptic potentials,449.5 ± 52.1,511.8 ± 45.7,481.1 ± 54.3,479.1 ± 57.2,600.0 ± 0,571.6 ± 28.4,improved significantly
